Results taken from patent publication US20250382344A1, “Soluble GLP1/GIP/NPY2 Receptor Triple Agonists” (Boehringer Ingelheim International GmH, priority 2024, published 2025).
Where two headings read alike, the source gives them in different places.

Legend:
hGIPR = target: T1, hGIPR (Homo sapiens, UniProt P48546); assay: hGIPR CreLuc assay in 0.5% and 100% plasma (CHO CRE-luciferase reporter cells); format: cell-based
T1 construct: expressed in transfected cells; host or cells: CHO CRE-luciferase reporter cells
T1 sequence (P48546 22-466): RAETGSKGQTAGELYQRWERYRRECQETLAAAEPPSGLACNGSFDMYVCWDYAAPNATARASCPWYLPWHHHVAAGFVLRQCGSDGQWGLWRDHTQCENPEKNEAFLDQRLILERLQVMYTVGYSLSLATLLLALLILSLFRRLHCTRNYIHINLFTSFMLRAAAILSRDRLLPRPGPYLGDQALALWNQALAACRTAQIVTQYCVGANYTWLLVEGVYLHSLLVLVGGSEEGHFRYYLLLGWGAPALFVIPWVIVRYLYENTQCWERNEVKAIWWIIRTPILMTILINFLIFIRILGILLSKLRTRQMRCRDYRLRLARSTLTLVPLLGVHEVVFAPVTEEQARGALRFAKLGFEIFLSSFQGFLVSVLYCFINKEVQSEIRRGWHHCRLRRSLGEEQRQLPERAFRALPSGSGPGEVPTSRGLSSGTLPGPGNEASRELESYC

hGLP1R = target: T2, hGLP1R (Homo sapiens, UniProt P43220); assay: hGLP1R CreLuc assay in 0.5% and 100% plasma (HEK-293 CRE-luciferase reporter cells); format: cell-based; details: HEK-293 reporter cells
T2 construct: expressed in transfected cells; host or cells: HEK-293 CRE-luciferase reporter cells

hNPY2R = target: T3, hNPY2R (Homo sapiens, UniProt P49146); assay: hNPY2R CreLuc assay in 0.5% and 100% plasma (HEK-293 CRE-luciferase reporter cells); format: cell-based; details: HEK-293 reporter cells
T3 construct: expressed in transfected cells; host or cells: HEK-293 CRE-luciferase reporter cells
T3 sequence (P49146 1-381): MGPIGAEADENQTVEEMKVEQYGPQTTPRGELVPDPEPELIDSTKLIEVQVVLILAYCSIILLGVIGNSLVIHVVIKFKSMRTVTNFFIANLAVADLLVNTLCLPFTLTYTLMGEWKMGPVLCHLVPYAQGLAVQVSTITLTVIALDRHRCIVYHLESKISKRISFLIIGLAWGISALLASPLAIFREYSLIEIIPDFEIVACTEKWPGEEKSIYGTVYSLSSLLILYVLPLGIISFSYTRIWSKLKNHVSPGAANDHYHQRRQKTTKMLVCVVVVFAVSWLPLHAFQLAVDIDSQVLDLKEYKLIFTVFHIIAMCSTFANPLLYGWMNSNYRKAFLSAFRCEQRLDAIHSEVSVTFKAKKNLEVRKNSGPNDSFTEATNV

[1] = Solubility in 0.1 M phosphate buffer at pH 7; format: physicochemical; details: 0.1 M phosphate buffer at pH 7, 10 mg/mL final peptide concentration, shaking 2 hours at room temperature, peptides as TFA-salts; measured sample pH 6.5-7.0
[2] = 0.5% human plasma, read-out: hGIPR 0.5% hP
[3] = 100% human plasma, read-out: hGIPR 100% hP
[4] = 0.5% human plasma, read-out: hGLP1R 0.5% hP
[5] = 100% human plasma, read-out: hNPY2R 100% hP
[6] = 0.5% human plasma, read-out: hNPY2R 0.5% hP

T2 sequence (P43220 24-463): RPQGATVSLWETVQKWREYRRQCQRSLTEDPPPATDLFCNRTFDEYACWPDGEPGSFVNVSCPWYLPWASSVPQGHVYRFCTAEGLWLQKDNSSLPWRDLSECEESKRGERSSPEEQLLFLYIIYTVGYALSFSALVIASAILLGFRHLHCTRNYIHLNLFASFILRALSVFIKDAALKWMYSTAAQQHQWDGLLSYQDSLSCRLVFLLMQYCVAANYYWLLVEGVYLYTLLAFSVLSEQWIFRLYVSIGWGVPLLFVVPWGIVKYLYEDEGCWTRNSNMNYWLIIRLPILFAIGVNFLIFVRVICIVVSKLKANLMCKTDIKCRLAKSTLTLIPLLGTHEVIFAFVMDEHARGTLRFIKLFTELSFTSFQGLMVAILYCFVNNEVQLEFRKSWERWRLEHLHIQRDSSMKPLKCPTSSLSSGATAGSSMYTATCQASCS

| EC50 (hGIPR; [2]) [nM] | EC50 (hGIPR; [3]) [nM] | EC50 (hGLP1R; [4]) [nM] | EC50 (hNPY2R; [5]) [nM] | solubility at 2 h [1] [µg/mL] | EC50 (hGLP1R; 100% human plasma, read-out: hGLP1R 100% hP) [nM] | EC50 (hNPY2R; [6]) [nM] | SMILES |
| --- | --- | --- | --- | --- | --- | --- | --- |
| 0.3 | 14.2 | 0.3 | 476 | 4900 | – | – | CC[C@H](C)[C@H](NC(=O)[C@H](CC(C)C)NC(=O)[C@H](Cc1c[nH]cn1)NC(=O)[C@H](CCCNC(=N)N)NC(=O)[C@@H](NC(=O)[C@H](Cc1ccccc1)NC(=O)[C@H](CCC(=O)O)NC(=O)C(C)(C)NC(=O)[C@H](CCC(N)=O)NC(=O)[C@H](C)NC(=O)[C@H](CCC(N)=O)NC(=O)[C@H](CCCCN)NC(=O)[C@H](CCC(=O)O)NC(=O)[C@H](CC(C)C)NC(=O)C(C)(C)NC(=O)[C@@H](NC(=O)[C@H](CO)NC(=O)[C@H](Cc1ccc(O)cc1)NC(=O)[C@H](CC(=O)O)NC(=O)[C@H](CO)NC(=O)[C@@H](NC(=O)[C@H](Cc1ccccc1)NC(=O)[C@@H](NC(=O)CNC(=O)[C@H](CCC(=O)O)NC(=O)C(C)(C)NC(=O)[C@@H](N)Cc1ccc(O)cc1)[C@@H](C)O)[C@@H](C)O)[C@@H](C)CC)C(C)C)C(=O)N[C@@H](CC(N)=O)C(=O)N[C@@H](CCCCNC(=O)COCCOCCNC(=O)CC[C@H](NC(=O)CC[C@H](NC(=O)CC[C@H](NC(=O)CC[C@H](NC(=O)CC[C@H](NC(=O)CCCCCCCCCCCCCCCCC(=O)O)C(=O)O)C(=O)O)C(=O)O)C(=O)O)C(=O)O)C(=O)NC(C)(C)C(=O)N[C@H](C(=O)N[C@@H](CCCNC(=N)N)C(=O)N[C@@H](CCC(N)=O)C(=O)N[C@@H](CCCNC(=N)N)C(=O)N[C@@H](Cc1ccc(O)cc1)C(N)=O)[C@@H](C)O [Compound 8, Y-Aib-E-G-T-F-T-S-D-Y-S-I-Aib-L-E-K-Q-A-Q-Aib-E-F-V-R-H-L-I-N-K(1,3)-Aib-T-R-Q-R-Y-NH2.C18DA-gGlu-gGlu-gGlu-gGlu-gGlu-OEG(1,2)] |
| 0.1 | 6.2 | 0.3 | 387 | 4800 | 0.9 | 16.8 | CC[C@H](C)[C@H](NC(=O)[C@H](CC(C)C)NC(=O)[C@H](Cc1c[nH]cn1)NC(=O)[C@H](CCCNC(=N)N)NC(=O)[C@@H](NC(=O)[C@H](Cc1ccccc1)NC(=O)[C@H](CCC(=O)O)NC(=O)C(C)(C)NC(=O)[C@H](CCC(N)=O)NC(=O)[C@H](C)NC(=O)[C@H](CCC(N)=O)NC(=O)[C@H](CCCCN)NC(=O)[C@H](CCC(=O)O)NC(=O)[C@H](CC(C)C)NC(=O)C(C)(C)NC(=O)[C@@H](NC(=O)[C@H](CO)NC(=O)[C@H](Cc1ccc(O)cc1)NC(=O)[C@H](CC(=O)O)NC(=O)[C@H](CO)NC(=O)[C@@H](NC(=O)[C@H](Cc1ccccc1)NC(=O)[C@@H](NC(=O)CNC(=O)[C@H](CCC(=O)O)NC(=O)C(C)(C)NC(=O)[C@@H](N)Cc1ccc(O)cc1)[C@@H](C)O)[C@@H](C)O)[C@@H](C)CC)C(C)C)C(=O)N[C@@H](CC(N)=O)C(=O)N[C@@H](CCCCNC(=O)CCCCCNC(=O)CC[C@H](NC(=O)CC[C@H](NC(=O)CC[C@H](NC(=O)CC[C@H](NC(=O)CC[C@H](NC(=O)CCCCCCCCCCCCCCCCC(=O)O)C(=O)O)C(=O)O)C(=O)O)C(=O)O)C(=O)O)C(=O)NC(C)(C)C(=O)N[C@H](C(=O)N[C@@H](CCCNC(=N)N)C(=O)N[C@@H](CCC(N)=O)C(=O)N[C@@H](CCCNC(=N)N)C(=O)N[C@@H](Cc1ccc(O)cc1)C(N)=O)[C@@H](C)O [Compound 14, Y-Aib-E-G-T-F-T-S-D-Y-S-I-Aib-L-E-K-Q-A-Q-Aib-E-F-V-R-H-L-I-N-K(1,3)-Aib-T-R-Q-R-Y-NH2.C18DA-gGlu-gGlu-gGlu-gGlu-gGlu-AHX(1,2)] |
| 0.3 | – | 0.8 | – | 10000 | – | 19.9 | CC[C@H](C)[C@H](NC(=O)[C@H](CC(C)C)NC(=O)[C@H](Cc1c[nH]cn1)NC(=O)[C@H](CCCNC(=N)N)NC(=O)[C@@H](NC(=O)[C@H](Cc1ccccc1)NC(=O)[C@H](C)NC(=O)C(C)(C)NC(=O)[C@H](CCC(N)=O)NC(=O)[C@H](C)NC(=O)[C@H](CCC(N)=O)NC(=O)[C@H](CCCCN)NC(=O)[C@H](CCC(=O)O)NC(=O)[C@H](CC(C)C)NC(=O)C(C)(C)NC(=O)[C@@H](NC(=O)[C@H](CO)NC(=O)[C@H](Cc1ccc(O)cc1)NC(=O)[C@H](CC(=O)O)NC(=O)[C@H](CO)NC(=O)[C@@H](NC(=O)[C@H](Cc1ccccc1)NC(=O)[C@@H](NC(=O)CNC(=O)[C@H](CCC(=O)O)NC(=O)C(C)(C)NC(=O)[C@@H](N)Cc1ccc(O)cc1)[C@@H](C)O)[C@@H](C)O)[C@@H](C)CC)C(C)C)C(=O)N[C@@H](CC(N)=O)C(=O)N[C@@H](CCCCNC(=O)COCCOCCNC(=O)CC[C@H](NC(=O)CC[C@H](NC(=O)CC[C@H](NC(=O)CC[C@H](NC(=O)CC[C@H](NC(=O)CC[C@H](NC(=O)CCCCCCCCCCCCCCCCC(=O)O)C(=O)O)C(=O)O)C(=O)O)C(=O)O)C(=O)O)C(=O)O)C(=O)NC(C)(C)C(=O)N[C@H](C(=O)N[C@@H](CCCNC(=N)N)C(=O)N[C@@H](CCC(N)=O)C(=O)N[C@@H](CCCNC(=N)N)C(=O)N[C@@H](Cc1ccc(O)cc1)C(N)=O)[C@@H](C)O [Compound 47, Y-Aib-E-G-T-F-T-S-D-Y-S-I-Aib-L-E-K-Q-A-Q-Aib-A-F-V-R-H-L-I-N-K(1,3)-Aib-T-R-Q-R-Y-NH2.C18DA-gGlu-gGlu-gGlu-gGlu-gGlu-gGlu-OEG(1,2)] |
| 0.7 | – | 0.7 | 523 | 4500 | – | – | CC[C@H](C)[C@H](NC(=O)[C@H](CC(C)C)NC(=O)[C@H](CCC(N)=O)NC(=O)[C@H](CCCNC(=N)N)NC(=O)[C@@H](NC(=O)[C@H](Cc1ccccc1)NC(=O)[C@H](C)NC(=O)C(C)(C)NC(=O)[C@H](CCC(N)=O)NC(=O)[C@H](C)NC(=O)[C@H](CCC(N)=O)NC(=O)[C@H](CCCCN)NC(=O)[C@H](CCC(=O)O)NC(=O)[C@H](CC(C)C)NC(=O)C(C)(C)NC(=O)[C@@H](NC(=O)[C@H](CO)NC(=O)[C@H](Cc1ccc(O)cc1)NC(=O)[C@H](CC(=O)O)NC(=O)[C@H](CO)NC(=O)[C@@H](NC(=O)[C@H](Cc1ccccc1)NC(=O)[C@@H](NC(=O)CNC(=O)[C@H](CCC(=O)O)NC(=O)C(C)(C)NC(=O)[C@@H](N)Cc1ccc(O)cc1)[C@@H](C)O)[C@@H](C)O)[C@@H](C)CC)C(C)C)C(=O)N[C@@H](CC(N)=O)C(=O)N[C@@H](CCCCNC(=O)CC[C@H](NC(=O)CC[C@H](NC(=O)CC[C@H](NC(=O)CC[C@H](NC(=O)CC[C@H](NC(=O)CCCCCCCCCCCCCCCCC(=O)O)C(=O)O)C(=O)O)C(=O)O)C(=O)O)C(=O)O)C(=O)NC(C)(C)C(=O)N[C@H](C(=O)N[C@@H](CCCNC(=N)N)C(=O)N[C@@H](CCC(N)=O)C(=O)N[C@@H](CCCNC(=N)N)C(=O)N[C@@H](Cc1ccc(O)cc1)C(N)=O)[C@@H](C)O [Compound 50, Y-Aib-E-G-T-F-T-S-D-Y-S-I-Aib-L-E-K-Q-A-Q-Aib-A-F-V-R-Q-L-I-N-K(1,3)-Aib-T-R-Q-R-Y-NH2.C18DA-gGlu-gGlu-gGlu-gGlu-gGlu(1,2)] |
| – | – | 2 | – | 9400 | – | 17.5 | CC[C@H](C)[C@H](NC(=O)[C@H](CC(C)C)NC(=O)[C@H](Cc1c[nH]cn1)NC(=O)[C@H](CCCNC(=N)N)NC(=O)[C@@H](NC(=O)[C@H](Cc1ccccc1)NC(=O)[C@H](C)NC(=O)C(C)(C)NC(=O)[C@H](CCC(=O)O)NC(=O)[C@H](C)NC(=O)[C@H](CCC(N)=O)NC(=O)[C@H](CCCCN)NC(=O)[C@H](CCC(=O)O)NC(=O)[C@H](CC(C)C)NC(=O)C(C)(C)NC(=O)[C@@H](NC(=O)[C@H](CO)NC(=O)[C@H](Cc1ccc(O)cc1)NC(=O)[C@H](CC(=O)O)NC(=O)[C@H](CO)NC(=O)[C@@H](NC(=O)[C@H](Cc1ccccc1)NC(=O)[C@@H](NC(=O)CNC(=O)[C@H](CCC(=O)O)NC(=O)C(C)(C)NC(=O)[C@@H](N)Cc1ccc(O)cc1)[C@@H](C)O)[C@@H](C)O)[C@@H](C)CC)C(C)C)C(=O)N[C@@H](CC(N)=O)C(=O)N[C@@H](CCCCNC(=O)[C@@H](N)CCCCNC(=O)CC[C@H](NC(=O)CC[C@H](NC(=O)CC[C@H](NC(=O)CC[C@H](NC(=O)CC[C@H](NC(=O)CC[C@H](NC(=O)CCCCCCCCCCCCCCCCCCC(=O)O)C(=O)O)C(=O)O)C(=O)O)C(=O)O)C(=O)O)C(=O)O)C(=O)NC(C)(C)C(=O)N[C@H](C(=O)N[C@@H](CCCNC(=N)N)C(=O)N[C@@H](CCC(N)=O)C(=O)N[C@@H](CCCNC(=N)N)C(=O)N[C@@H](Cc1ccc(O)cc1)C(N)=O)[C@@H](C)O [Compound 104, Y-Aib-E-G-T-F-T-S-D-Y-S-I-Aib-L-E-K-Q-A-E-Aib-A-F-V-R-H-L-I-N-K(1,3)-Aib-T-R-Q-R-Y-NH2.C20DA-gGlu-gGlu-gGlu-gGlu-gGlu-gGlu-eLys(1,2)] |
